{"source": "patent US10080775B2", "about": "“Peptide having skin whitening activity, and use thereof” (CAREGEN CO., LTD., priority 2017, dated 2018)", "tested_on": "melanin-forming cells (B16F10 cell line)", "experiment": "Cytotoxicity test (MTT assay)", "type": "cell-based, mouse", "conditions": "B16F10, 1 uM to 200 uM, 72 hours, serum-free medium", "protocol": "After melanin-forming cells (B16F10 cell line) dispensed in 48-well culture plates were incubated in a 37° C. incubator for 24 hours, the medium for each plate was removed and replaced with serum-free medium, and then the cells were treated with the peptide of the present invention at different concentrations (1, 10, 50, 100, 150, 200 uM). After the cells were incubated for 72 hours, the MTT reagent was added, followed by reaction for 4 hours. Then, the generated formazan was dissolved in DMSO, and the absorbance was measured at 560 nm.", "note": "Peptide text beside a SMILES is read from it."}
{"smiles": "CCCC(CCC)C(=O)N[C@H](C(=O)N[C@@H](Cc1c[nH]c2ccccc12)C(=O)N[C@@H](CO)C(=O)N[C@@H](CC(C)C)C(=O)N[C@@H](CC(=O)O)C(=O)N[C@H](C(=O)N[C@@H](CCC(N)=O)C(=O)N[C@@H](Cc1ccc(O)cc1)C(=O)NCC(=O)NCC(=O)N[C@@H](CCCNC(=N)N)C(=O)NCC(=O)N[C@@H](CC(=O)O)C(=O)O)[C@@H](C)O)[C@@H](C)CC", "note": "[Valprooyl-Ile-Trp-Ser-Leu-Asp-Thr-Gln-Tyr-Gly-Gly-Arg-Gly-Asp-COOH] (HELM PEPTIDE1{[CCCC(CCC)C(=O)[*:2]].I.W.S.L.D.T.Q.Y.G.G.R.G.D}$$$$V2.0)", "values": [{"measurement": "cytotoxicity on melanocytes (MTT assay)", "value": "no cytotoxicity was observed"}]}
